# Assay results as given in the supplement of paper PMC10307832.
# How the values were obtained:
# Assay in all cases: relative viability (nuclei count vs DMSO), 5 days (fraction); higher = more cells survive
# [1] = tested on: NCI-H2085
# Summary of the method: (§1)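 Each reported value is a median over duplicate plates. It expresses relative viability: treated-well nuclei count divided by vehicle-well nuclei count. Lung cancer cell lines in 1536-well plates were dosed by pin tool a day after seeding, alone with one drug or with a fixed anchor-drug dose plus five library-drug doses (not always all listed) in √10 steps, and nuclei were counted after 5 days.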
# [2] = tested on: H3255
# Summary of the method: as §1
# [3] = tested on: NCI-H2087
# Summary of the method: as §1
# [4] = tested on: NCI-H1651
# Summary of the method: as §1
# [5] = tested on: NCI-H1355
# Summary of the method: as §1
# [6] = tested on: LCLC-103H
# Summary of the method: as §1
# [7] = tested on: NCI-H650
# Summary of the method: as §1
# [8] = tested on: NCI-H2405
# Summary of the method: as §1
# [9] = tested on: EMC-BAC-2
# Summary of the method: as §1
# [10] = tested on: NCI-H322M
# Summary of the method: as §1
# [11] = tested on: NCI-H1395
# Summary of the method: as §1
# [12] = tested on: NCI-H1944
# Summary of the method: as §1
# [13] = tested on: EPLC-272H
# Summary of the method: as §1
# [14] = tested on: LCLC-97TM1
# Summary of the method: as §1
# [15] = tested on: NCI-H1793
# Summary of the method: as §1
# [16] = tested on: ChaGo-K-1
# Summary of the method: as §1
# [17] = tested on: HCC-827
# Summary of the method: as §1
# [18] = tested on: HCC-44
# Summary of the method: as §1
smiles,measurement,setting,value
CC1(C)CCC(c2ccc(Cl)cc2)=C(CN2CCN(c3ccc(C(=O)NS(=O)(=O)c4ccc(N[C@H](CCN5CCOCC5)CSc5ccccc5)c(S(=O)(=O)C(F)(F)F)c4)cc3)CC2)C1 [Navitoclax] + NC(=O)Nc1cc(-c2cccc(F)c2)sc1C(=O)N[C@H]1CCCNC1 [AZD7762] (partner 0.2 µM),relative viability,[1]; first compound 0.005 µM,0.941
same,relative viability,[1]; first compound 0.01581 µM,1.01
same,relative viability,[1]; first compound 0.05 µM,0.885
same,relative viability,[1]; first compound 0.1581 µM,1.07
same,relative viability,[1]; first compound 0.5 µM,0.942
same,relative viability,[2]; first compound 0.005 µM,0.891
same,relative viability,[2]; first compound 0.01581 µM,1.03
same,relative viability,[2]; first compound 0.05 µM,0.851
same,relative viability,[2]; first compound 0.1581 µM,0.922
same,relative viability,[2]; first compound 0.5 µM,0.805
same,relative viability,[3]; first compound 0.005 µM,1.18
same,relative viability,[3]; first compound 0.01581 µM,1.38
same,relative viability,[3]; first compound 0.1581 µM,1.29
same,relative viability,[3]; first compound 0.5 µM,1.41
same,relative viability,[4]; first compound 0.005 µM,0.485
same,relative viability,[4]; first compound 0.01581 µM,0.488
same,relative viability,[4]; first compound 0.05 µM,0.335
same,relative viability,[4]; first compound 0.1581 µM,0.474
same,relative viability,[4]; first compound 0.5 µM,0.466
same,relative viability,[5]; first compound 0.005 µM,0.745
same,relative viability,[5]; first compound 0.01581 µM,0.728
same,relative viability,[5]; first compound 0.05 µM,0.588
same,relative viability,[5]; first compound 0.1581 µM,0.735
same,relative viability,[5]; first compound 0.5 µM,0.668
same,relative viability,[6]; first compound 0.005 µM,0.806
same,relative viability,[6]; first compound 0.01581 µM,0.839
same,relative viability,[6]; first compound 0.05 µM,0.736
same,relative viability,[6]; first compound 0.1581 µM,0.826
same,relative viability,[6]; first compound 0.5 µM,0.8
same,relative viability,[7]; first compound 0.005 µM,0.946
same,relative viability,[7]; first compound 0.01581 µM,1.12
same,relative viability,[7]; first compound 0.05 µM,1.13
same,relative viability,[7]; first compound 0.1581 µM,0.801
same,relative viability,[7]; first compound 0.5 µM,0.937
same,relative viability,[8]; first compound 0.005 µM,0.703
same,relative viability,[8]; first compound 0.01581 µM,0.857
same,relative viability,[8]; first compound 0.05 µM,0.622
same,relative viability,[8]; first compound 0.1581 µM,0.698
same,relative viability,[8]; first compound 0.5 µM,0.653
same,relative viability,[9]; first compound 0.005 µM,1.03
same,relative viability,[9]; first compound 0.01581 µM,1.26
same,relative viability,[9]; first compound 0.05 µM,1.07
same,relative viability,[9]; first compound 0.1581 µM,1.09
same,relative viability,[9]; first compound 0.5 µM,1.13
same,relative viability,[10]; first compound 0.005 µM,0.648
same,relative viability,[10]; first compound 0.01581 µM,0.626
same,relative viability,[10]; first compound 0.05 µM,0.511
same,relative viability,[10]; first compound 0.1581 µM,0.587
same,relative viability,[10]; first compound 0.5 µM,0.679
same,relative viability,[11]; first compound 0.005 µM,0.368
same,relative viability,[11]; first compound 0.01581 µM,0.41
same,relative viability,[11]; first compound 0.05 µM,0.357
same,relative viability,[11]; first compound 0.1581 µM,0.385
same,relative viability,[11]; first compound 0.5 µM,0.405
same,relative viability,[12]; first compound 0.005 µM,0.52
same,relative viability,[12]; first compound 0.01581 µM,0.637
same,relative viability,[12]; first compound 0.1581 µM,0.489
same,relative viability,[12]; first compound 0.5 µM,0.582
same,relative viability,[13]; first compound 0.005 µM,0.26
same,relative viability,[13]; first compound 0.05 µM,0.3
same,relative viability,[13]; first compound 0.1581 µM,0.143
same,relative viability,[13]; first compound 0.5 µM,0.257
same,relative viability,[14]; first compound 0.005 µM,0.236
same,relative viability,[14]; first compound 0.01581 µM,0.301
same,relative viability,[14]; first compound 0.05 µM,0.181
same,relative viability,[14]; first compound 0.1581 µM,0.253
same,relative viability,[14]; first compound 0.5 µM,0.22
same,relative viability,[15]; first compound 0.005 µM,0.488
same,relative viability,[15]; first compound 0.01581 µM,0.613
same,relative viability,[15]; first compound 0.1581 µM,0.402
same,relative viability,[15]; first compound 0.5 µM,0.246
same,relative viability,[16]; first compound 0.005 µM,0.879
same,relative viability,[16]; first compound 0.01581 µM,0.875
same,relative viability,[16]; first compound 0.05 µM,0.655
same,relative viability,[16]; first compound 0.1581 µM,0.883
same,relative viability,[16]; first compound 0.5 µM,0.803
same,relative viability,[17]; first compound 0.005 µM,0.274
same,relative viability,[17]; first compound 0.01581 µM,0.188
same,relative viability,[17]; first compound 0.05 µM,0.186
same,relative viability,[17]; first compound 0.1581 µM,0.199
same,relative viability,[17]; first compound 0.5 µM,0.235
same,relative viability,[18]; first compound 0.005 µM,0.935
same,relative viability,[18]; first compound 0.01581 µM,0.957
same,relative viability,[18]; first compound 0.05 µM,0.961
same,relative viability,[18]; first compound 0.1581 µM,0.915
same,relative viability,[18]; first compound 0.5 µM,0.881
